Data taken from ChEMBL document CHEMBL3124778, “Structure-based design of new dihydrofolate reductase antibacterial agents: 7-(benzimidazol-1-yl)-2,4-diaminoquinazolines” (J Med Chem, 2014).
In brackets after ≈: the same amount, converted by molar mass.

Biological target: Dihydrofolate reductase (Staphylococcus aureus, UniProt P0A017)
Assay: Inhibition of Staphylococcus aureus DHFR using dihydrofolate as substrate preincubated for 10 mins followed by substrate addition by spectrophotometric analysis in presence of NADPH

Sequence of Dihydrofolate reductase (Staphylococcus aureus, UniProt P0A017) (P0A017 whole entry): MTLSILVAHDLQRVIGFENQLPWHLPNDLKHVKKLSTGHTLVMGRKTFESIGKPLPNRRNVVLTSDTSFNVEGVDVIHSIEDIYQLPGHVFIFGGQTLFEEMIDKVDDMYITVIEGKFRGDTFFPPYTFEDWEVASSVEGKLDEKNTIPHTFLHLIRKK

Which Ki does the source give for COc1cc2nc(-c3ccco3)n(-c3cc4nc(N)nc(N)c4cc3Cl)c2cc1OC here?
The Ki was 0.024 nM.

For Cc1cc2nc(-c3cccn3C)n(-c3ccc4c(N)nc(N)nc4c3)c2cc1C, which Ki is on record?
Its Ki is 4 nM.

With COc1cc2nc(-c3cccs3)n(-c3cc4nc(N)nc(N)c4cc3Cl)c2cc1OC as the compound, how does the Ki read?
The Ki was 0.048 nM.

With Cc1cc2nc(-c3cscn3)n(-c3ccc4c(N)nc(N)nc4c3)c2cc1C as the compound, how does the Ki read?
The Ki was 0.096 nM.

With Cc1cc2nc(C3CCOC3)n(-c3ccc4c(N)nc(N)nc4c3)c2cc1C (centres undefined) as the compound, how does the Ki read?
Its Ki is 4.2 nM.

Which Ki does the source give for Cc1cc2nc(-c3cccs3)n(-c3cc4nc(N)nc(N)c4cc3Cl)c2cc1C here?
Its Ki is 0.01 nM.

For COc1cc2nc(-c3ccccn3)n(-c3ccc4c(N)nc(N)nc4c3)c2cc1OC, which Ki is on record?
The Ki was 0.36 nM.

Test system: Streptococcus pneumoniae
Assay: Antibacterial activity against Streptococcus pneumoniae ATCC 700677 after 18 to 24 hrs by alamar Blue assay
Format: functional

Which MIC does the source give for Cc1cc2nc(-c3cccs3)n(-c3cc4nc(N)nc(N)c4cc3Cl)c2cc1C here?
The MIC was 0.25 µg/mL (≈ 0.594 µM).

Test system: Streptococcus pneumoniae
Assay: Antibacterial activity against Streptococcus pneumoniae ATCC 51916 after 18 to 24 hrs by alamar Blue assay
Format: functional

For Cc1cc2nc(-c3cccs3)n(-c3cc4nc(N)nc(N)c4cc3Cl)c2cc1C, which MIC is on record?
The MIC was 1 µg/mL (≈ 2.38 µM).

Test system: Streptococcus pneumoniae
Assay: Antibacterial activity against Streptococcus pneumoniae ATCC 700904 after 18 to 24 hrs by alamar Blue assay
Format: functional

Which MIC does the source give for Cc1cc2nc(-c3cccs3)n(-c3cc4nc(N)nc(N)c4cc3Cl)c2cc1C here?
The MIC was 4 µg/mL (≈ 9.5 µM).

Test system: Streptococcus pneumoniae
Assay: Antibacterial activity against Streptococcus pneumoniae ATCC 700675 after 18 to 24 hrs by alamar Blue assay
Format: functional

With Cc1cc2nc(-c3cccs3)n(-c3cc4nc(N)nc(N)c4cc3Cl)c2cc1C as the compound, how does the MIC read?
The MIC was 1 µg/mL (≈ 2.38 µM).

Test system: not listed separately
Assay: Selectivity ratio of Ki for human DHFR to Ki for Staphylococcus aureus DHFR

Which Ratio Ki does the source give for Cc1cc2nc(-c3cscn3)n(-c3ccc4c(N)nc(N)nc4c3)c2cc1C here?
The Ratio Ki was 11500.

With COc1cc2nc(-c3ccccn3)n(-c3ccc4c(N)nc(N)nc4c3)c2cc1OC as the compound, how does the Ratio Ki read?
The Ratio Ki was 2300.

Test system: Streptococcus pneumoniae
Assay: Antibacterial activity against Streptococcus pneumoniae after 18 to 24 hrs by alamar Blue assay
Format: functional

With Cc1cc2nc(-c3cccs3)n(-c3cc4nc(N)nc(N)c4cc3Cl)c2cc1C as the compound, how does the MIC50 read?
Its MIC50 is 1 µg/mL (≈ 2.38 µM).

What about the MIC90 of the same compound?
Its MIC90 is over 64 µg/mL.

Biological target: T1, Dihydrofolate reductase (Homo sapiens, UniProt P00374)
T1 sequence (P00374 whole entry): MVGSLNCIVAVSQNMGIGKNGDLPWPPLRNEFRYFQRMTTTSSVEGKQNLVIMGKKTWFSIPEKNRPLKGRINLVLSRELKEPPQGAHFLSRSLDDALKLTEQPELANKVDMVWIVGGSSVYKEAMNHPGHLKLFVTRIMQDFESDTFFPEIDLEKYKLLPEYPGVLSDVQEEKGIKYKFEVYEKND
Assay: Inhibition of human DHFR using dihydrofolate as substrate preincubated for 10 mins followed by substrate addition by spectrophotometric analysis in presence of NADPH

For COc1cc2nc(-c3ccco3)n(-c3cc4nc(N)nc(N)c4cc3Cl)c2cc1OC, which Ki is on record?
The Ki was 610 nM.

For Cc1cc2nc(-c3cccn3C)n(-c3ccc4c(N)nc(N)nc4c3)c2cc1C, which Ki is on record?
The Ki was over 5000 nM.

With COc1cc2nc(-c3cccs3)n(-c3cc4nc(N)nc(N)c4cc3Cl)c2cc1OC as the compound, how does the Ki read?
The Ki was over 3000 nM.

Which Ki does the source give for Cc1cc2nc(-c3cscn3)n(-c3ccc4c(N)nc(N)nc4c3)c2cc1C here?
The Ki was 1100 nM.

Which Ki does the source give for Cc1cc2nc(C3CCOC3)n(-c3ccc4c(N)nc(N)nc4c3)c2cc1C (centres undefined) here?
Its Ki is over 5000 nM.

With Cc1cc2nc(-c3cccs3)n(-c3cc4nc(N)nc(N)c4cc3Cl)c2cc1C as the compound, how does the Ki read?
The Ki was over 3000 nM.

With COc1cc2nc(-c3ccccn3)n(-c3ccc4c(N)nc(N)nc4c3)c2cc1OC as the compound, how does the Ki read?
Its Ki is 841 nM.

Test system: Streptococcus pneumoniae
Assay: Antibacterial activity against Streptococcus pneumoniae ATCC 700676 after 18 to 24 hrs by alamar Blue assay
Format: functional

With Cc1cc2nc(-c3cccs3)n(-c3cc4nc(N)nc(N)c4cc3Cl)c2cc1C as the compound, how does the MIC read?
The MIC was 0.25 µg/mL (≈ 0.594 µM).

Test system: Streptococcus pneumoniae
Assay: Antibacterial activity against Streptococcus pneumoniae ATCC BAA-255 after 18 to 24 hrs by alamar Blue assay
Format: functional

For Cc1cc2nc(-c3cccs3)n(-c3cc4nc(N)nc(N)c4cc3Cl)c2cc1C, which MIC is on record?
Its MIC is at most 0.125 µg/mL.

Test system: Streptococcus pneumoniae
Assay: Antibacterial activity against Streptococcus pneumoniae ATCC 700669 after 18 to 24 hrs by alamar Blue assay
Format: functional

With Cc1cc2nc(-c3cccs3)n(-c3cc4nc(N)nc(N)c4cc3Cl)c2cc1C as the compound, how does the MIC read?
Its MIC is 2 µg/mL (≈ 4.75 µM).

Test system: Streptococcus pneumoniae
Assay: Antibacterial activity against Streptococcus pneumoniae ATCC 700674 after 18 to 24 hrs by alamar Blue assay
Format: functional

With Cc1cc2nc(-c3cccs3)n(-c3cc4nc(N)nc(N)c4cc3Cl)c2cc1C as the compound, how does the MIC read?
Its MIC is over 64 µg/mL.

Test system: Staphylococcus aureus
Assay: Antibacterial activity against TMP-resistant Staphylococcus aureus expressing DHFR F99Y mutant after 18 to 24 hrs by alamar Blue assay
Format: functional

With COc1cc2nc(-c3ccco3)n(-c3cc4nc(N)nc(N)c4cc3Cl)c2cc1OC as the compound, how does the MIC read?
Its MIC is 8 µg/mL (≈ 18.3 µM).

With Cc1cc2nc(-c3cccn3C)n(-c3ccc4c(N)nc(N)nc4c3)c2cc1C as the compound, how does the MIC read?
Its MIC is 64 µg/mL (≈ 167 µM).

For COc1cc2nc(-c3cccs3)n(-c3cc4nc(N)nc(N)c4cc3Cl)c2cc1OC, which MIC is on record?
Its MIC is 4 µg/mL (≈ 8.83 µM).

Which MIC does the source give for Cc1cc2nc(-c3cscn3)n(-c3ccc4c(N)nc(N)nc4c3)c2cc1C here?
Its MIC is 16 µg/mL (≈ 41.3 µM).

With Cc1cc2nc(C3CCOC3)n(-c3ccc4c(N)nc(N)nc4c3)c2cc1C (centres undefined) as the compound, how does the MIC read?
The MIC was over 64 µg/mL.

For Cc1cc2nc(-c3cccs3)n(-c3cc4nc(N)nc(N)c4cc3Cl)c2cc1C, which MIC is on record?
Its MIC is 4 µg/mL (≈ 9.5 µM).

For COc1cc2nc(-c3ccccn3)n(-c3ccc4c(N)nc(N)nc4c3)c2cc1OC, which MIC is on record?
Its MIC is over 64 µg/mL.

Test system: Streptococcus pneumoniae
Assay: Antibacterial activity against Streptococcus pneumoniae ATCC 700671 after 18 to 24 hrs by alamar Blue assay
Format: functional

With Cc1cc2nc(-c3cccs3)n(-c3cc4nc(N)nc(N)c4cc3Cl)c2cc1C as the compound, how does the MIC read?
The MIC was over 64 µg/mL.

Test system: Streptococcus pneumoniae
Assay: Antibacterial activity against Streptococcus pneumoniae ATCC 49619 after 18 to 24 hrs by alamar Blue assay
Format: functional

For Cc1cc2nc(-c3cccs3)n(-c3cc4nc(N)nc(N)c4cc3Cl)c2cc1C, which MIC is on record?
The MIC was 0.5 µg/mL (≈ 1.19 µM).

Test system: Staphylococcus aureus
Assay: Antibacterial activity against Staphylococcus aureus ATCC 13709 after 18 to 24 hrs by alamar Blue assay in presence of 20% heat inactivated mouse serum
Format: functional

Which MIC does the source give for COc1cc2nc(-c3ccco3)n(-c3cc4nc(N)nc(N)c4cc3Cl)c2cc1OC here?
Its MIC is 0.5 µg/mL.

With Cc1cc2nc(-c3cccn3C)n(-c3ccc4c(N)nc(N)nc4c3)c2cc1C as the compound, how does the MIC read?
The MIC was 32 µg/mL.

Which MIC does the source give for COc1cc2nc(-c3cccs3)n(-c3cc4nc(N)nc(N)c4cc3Cl)c2cc1OC here?
The MIC was 0.5 µg/mL.

With Cc1cc2nc(-c3cscn3)n(-c3ccc4c(N)nc(N)nc4c3)c2cc1C as the compound, how does the MIC read?
The MIC was 2 µg/mL.

For Cc1cc2nc(C3CCOC3)n(-c3ccc4c(N)nc(N)nc4c3)c2cc1C (centres undefined), which MIC is on record?
The MIC was 64 µg/mL.

Which MIC does the source give for Cc1cc2nc(-c3cccs3)n(-c3cc4nc(N)nc(N)c4cc3Cl)c2cc1C here?
The MIC was 1 µg/mL.

For COc1cc2nc(-c3ccccn3)n(-c3ccc4c(N)nc(N)nc4c3)c2cc1OC, which MIC is on record?
Its MIC is 16 µg/mL.

Test system: Staphylococcus aureus
Assay: Antibacterial activity against Staphylococcus aureus ATCC 13709 after 18 to 24 hrs by alamar Blue assay
Format: functional

Which MIC does the source give for COc1cc2nc(-c3ccco3)n(-c3cc4nc(N)nc(N)c4cc3Cl)c2cc1OC here?
Its MIC is 0.5 µg/mL (≈ 1.14 µM).

For Cc1cc2nc(-c3cccn3C)n(-c3ccc4c(N)nc(N)nc4c3)c2cc1C, which MIC is on record?
Its MIC is 8 µg/mL (≈ 20.9 µM).

With COc1cc2nc(-c3cccs3)n(-c3cc4nc(N)nc(N)c4cc3Cl)c2cc1OC as the compound, how does the MIC read?
The MIC was 0.5 µg/mL (≈ 1.1 µM).

Which MIC does the source give for Cc1cc2nc(-c3cscn3)n(-c3ccc4c(N)nc(N)nc4c3)c2cc1C here?
Its MIC is 2 µg/mL (≈ 5.16 µM).

With Cc1cc2nc(C3CCOC3)n(-c3ccc4c(N)nc(N)nc4c3)c2cc1C (centres undefined) as the compound, how does the MIC read?
The MIC was 8 µg/mL (≈ 21.4 µM).

With Cc1cc2nc(-c3cccs3)n(-c3cc4nc(N)nc(N)c4cc3Cl)c2cc1C as the compound, how does the MIC read?
Its MIC is 0.03 µg/mL (≈ 0.0713 µM).

Which MIC does the source give for COc1cc2nc(-c3ccccn3)n(-c3ccc4c(N)nc(N)nc4c3)c2cc1OC here?
Its MIC is 4 µg/mL (≈ 9.67 µM).
